Test system: CYP2D6 enzyme
Assay: debrisoquine metabolic ratio (MR) phenotyping of study participants, correlated with CYP2D6 5′ flanking region haplotypes
Format: in vivo, human
Experimental: The study was performed in accordance with the principles stated in the Declaration of Helsinki as reviewed in Tokyo 1975 and Venice 1983, Hong Kong 1989 and Somerset West 1996. Subjects were preferably not related to each other. Based on questioning, individuals having one of the following were excluded: a medical condition judged to influence liver function or requiring pharmacological treatment; any on-going disease; intake of any drug, except oral contraceptives, during one week prior to the study; breast-feeding or pregnancy. No physical examination was performed. For these experiments, a single oral dose of 10 mg debrisoquine (Declinax, Hoffman-LaRoche) was taken in the evening before bed-time. The bladder was emptied before drug intake. All urine was then collected overnight (about 8 hours) A single blood sample was collected 3 hours after drug intake.
White blood cells isolated from a blood sample drawn from the brachial vein serve as the source of the genomic DNA for the analyses. The DNA was extracted by guanidine thiocyanate method or QlAamp Blood Kit (QIAGEN, Venlo, The Netherlands). The genes included in the study were amplified by PCR and the DNA sequences were determined by the technology most suitable for the specific fragment. […] Case Report Forms were designed and used for clinical and genetic data collection. Data was entered and stored in a relational database at Gemini Genomics AB, Uppsala. To secure consistency between the Case Report Forms and the database, data was checked either by double data entry or proofreading. After a Clean File was declared the database was protected against changes. By using the program Stat/Transfer™ the database was transferred to SAS data sets. The SAS™ system was used for tabulations and statistical evaluations. Genotypes and haplotypes were correlated against the metabolic ratio.
This analysis was performed using software based on maximum likelihood methodology and using the EM algorithm of Excoffier et al. (1995), Mol Biol Evol. 12:921-927. […] From the haplotype information two different kinds of variables were created: one variable was formed as a haplotype combination variable (HTYPE). This variable has the value H1/H2 when the subject has haplotypes 1 and 2, etc. Variables H1, H2, H3 and H4 are haplotype annotations that denote the number of copies of that particular haplotype for the subject, e.g., for a subject with haplotype H1/H2 the variables H1, H2, H3 and H4 will be 1, 1, 0 and 0, respectively. Each of these variables can thus take on the values 0, 1 or 2. Only the four most frequent haplotypes were considered when those variables were formed.

## N=C(N)N1CCc2ccccc2C1 [debrisoquine]
HTYPE H1/H1
  MR-range (min-max): 0.03-110
HTYPE H1/H1, 89% (49/55) in MR-range
  MR (Debr), predicted metabolic ratio: <0.8
HTYPE H1/H2
  MR-range (min-max): 0.06-1.04
HTYPE H1/H2, 81% (52/64) in MR-range
  MR (Debr), predicted metabolic ratio: <0.4
HTYPE H1/H3
  MR-range (min-max): 0.08-2.40
HTYPE H1/H3, 74% (14/19) in MR-range
  MR (Debr), predicted metabolic ratio: 0.4-2.0
HTYPE H1/H4
  MR-range (min-max): 0.18-143
HTYPE H1/H4, 74% (20/27) in MR-range
  MR (Debr), predicted metabolic ratio: 0.4-7.0
HTYPE H2/H2
  MR-range (min-max): 0.13-1.44
HTYPE H2/H2, 89% (17/19) in MR-range
  MR (Debr), predicted metabolic ratio: <0.8
HTYPE H2/H3
  MR-range (min-max): 0.13-2.29
HTYPE H2/H3, 86% (6/7) in MR-range
  MR (Debr), predicted metabolic ratio: 0.2-7.0
HTYPE H2/H4
  MR-range (min-max): 0.33-3.70
HTYPE H2/H4, 82% (14/17) in MR-range
  MR (Debr), predicted metabolic ratio: 0.4-2.0
HTYPE H3/H3
  MR-range (min-max): 0.85-5.17
HTYPE H3/H3, 100% (3/3) in MR-range
  MR (Debr), predicted metabolic ratio: 0.8-7.0
HTYPE H3/H4
  MR-range (min-max): 1.46-6.54
HTYPE H3/H4, 100% (5/5) in MR-range
  MR (Debr), predicted metabolic ratio: 0.8-7.0
HTYPE H4/H4
  MR-range (min-max): 26.3-236
HTYPE H4/H4, 100% (16/16) in MR-range
  MR (Debr), predicted metabolic ratio: >12.6
Haplotype H1/H1, n = 53, single oral dose 10 mg debrisoquine
  mr50 (metabolic ratio of the 50th percentile): mr50 = 0.22
Haplotype H1/—, n = 108
  mr50 (metabolic ratio of the 50th percentile): mr50 = 0.375
Haplotype H2/H2, n = 19
  mr50 (metabolic ratio of the 50th percentile): mr50 = 0.3
Haplotype H2/—, n = 88
  mr50 (metabolic ratio of the 50th percentile): mr50 = 0.335
Haplotype H3/H3, n = 3
  mr50 (metabolic ratio of the 50th percentile): mr50 = 2.08
Haplotype H3/—, n = 31
  mr50 (metabolic ratio of the 50th percentile): mr50 = 0.64
Haplotype H4/H4, n = 16
  mr50 (metabolic ratio of the 50th percentile): mr50 = 88
Haplotype H4/—, n = 49
  mr50 (metabolic ratio of the 50th percentile): mr50 = 0.86
No H1 copy (—/—), n = 71
  mr50 (metabolic ratio of the 50th percentile): mr50 = 0.87
No H2 copy (—/—), n = 125
  mr50 (metabolic ratio of the 50th percentile): mr50 = 0.56
No H3 copy (—/—), n = 198
  mr50 (metabolic ratio of the 50th percentile): mr50 = 0.34
No H4 copy (—/—), n = 167
  mr50 (metabolic ratio of the 50th percentile): mr50 = 0.27

Source: patent publication US20030044797A1, “Detection of CYP2D6 polymorphisms” (priority 2000, published 2003)
